Literature values as cited in patent US7125861B2, “Water-soluble chitosan-indole-3-propionic acid conjugates” (priority 2003, dated 2006).

Details: background statement on unconjugated indole-3-propionic acid

- solubility in water: not water soluble
SMILES: O=C(O)CCc1c[nH]c2ccccc12 [indole-3-propionic acid, 3-(3-Indolyl)propanoic acid]
